This note sets out measurements from US20250340911A1, “METHOD FOR PRODUCING FROM FATTY ALCOHOLS MONOMERS FOR PRODUCING VARIOUS SYNTHETIC RESINS” (priority 2022, published 2025).

The test system of the data set is recombinant Candida tropicalis Ct6 strain. Kind of data set: Cytotoxicity of synthesized (biomass-derived) dialkyl ethers to recombinant strain, growth by absorbance at 600 nm. It counts as cell-based. Particulars: 0-5% ether in YPD medium, 48-well plate, 24 hours or more, ether synthesized in Example 1. The protocol: The cytotoxicity of the dioctyl ether synthesized as described above was analyzed. 200 μl of a mixed solution of YPD medium (10 g/L yeast extract, 20 g/L Bacto peptone, 20 g/L glucose) and each concentration (0, 0.25, 0.5, 1, 2, 3, 4, or 5%) of dioctyl ether was added to each well of a 48-well plate. After 2 μl of a culture of a recombinant Candida tropicalis Ct6 strain cultured overnight in YPD medium at 30° C. and 200 rpm was further added to each well, the absorbance at 600 nm was measured using a plate reader at 30° C. for 24 hours or more at 15-minute intervals. The maximum specific growth rate (μm) and lag time were calculated using the Gompertz growth equation.
The cytotoxicity of the didodecyl ether synthesized as described above was analyzed. 200 μl of a mixed solution of YPD medium and each concentration (0, 0.25, 0.5, 1, 2, 3, 4, or 5%) of didodecyl ether was added to each well of a 48-well plate. After 2 μl of a culture of a recombinant Candida tropicalis Ct6 strain cultured overnight in YPD medium at 30° C. and 200 rpm was further added to each well, the absorbance at 600 nm was measured using a plate reader at 33° C. for 24 hours or more at 15-minute intervals. The maximum specific growth rate and lag time were calculated using the Gompertz growth equation.

`CCCCCCCCCCCCOCCCCCCCCCCCC` [Didodecyl ether, didodecyl ether]: the “cytotoxicity (maximum specific growth rate and lag time, Gompertz growth equation)” value is “almost no cytotoxicity”.
As for `CCCCCCCCOCCCCCCCC` [Dioctyl ether, dioctyl ether], the “cytotoxicity (maximum specific growth rate and lag time, Gompertz growth equation)” value is reported as “almost no cytotoxicity”.
